Laboratory results published in PMC7576608, “Mechanisms of telomerase inhibition by oxidized and therapeutic dNTPs” (Nature Communications, 2020).
Several values for one entry are separate records, joined by “and”; a condition that tells them apart may be missing. Identical values can stand only once. Like-named read-outs stand apart in the source and are kept apart here.

How the values were obtained:
telomerase [1] = molecular target: T1, telomerase (Homo sapiens, UniProt O14746); assay: Telomerase extension after insertion of modified dNTP (percent of product terminated at each template position); assay type: biochemical; design: made in house; anti-FLAG immunopurification, eluted with 3xFLAG peptide; settings: for Percent of Total Product: Fig 4a, Primer 3, 50 μM each dTTP, dGTP and dATP or 2-OH-dATP, Mean
T1 sequence (O14746 whole entry): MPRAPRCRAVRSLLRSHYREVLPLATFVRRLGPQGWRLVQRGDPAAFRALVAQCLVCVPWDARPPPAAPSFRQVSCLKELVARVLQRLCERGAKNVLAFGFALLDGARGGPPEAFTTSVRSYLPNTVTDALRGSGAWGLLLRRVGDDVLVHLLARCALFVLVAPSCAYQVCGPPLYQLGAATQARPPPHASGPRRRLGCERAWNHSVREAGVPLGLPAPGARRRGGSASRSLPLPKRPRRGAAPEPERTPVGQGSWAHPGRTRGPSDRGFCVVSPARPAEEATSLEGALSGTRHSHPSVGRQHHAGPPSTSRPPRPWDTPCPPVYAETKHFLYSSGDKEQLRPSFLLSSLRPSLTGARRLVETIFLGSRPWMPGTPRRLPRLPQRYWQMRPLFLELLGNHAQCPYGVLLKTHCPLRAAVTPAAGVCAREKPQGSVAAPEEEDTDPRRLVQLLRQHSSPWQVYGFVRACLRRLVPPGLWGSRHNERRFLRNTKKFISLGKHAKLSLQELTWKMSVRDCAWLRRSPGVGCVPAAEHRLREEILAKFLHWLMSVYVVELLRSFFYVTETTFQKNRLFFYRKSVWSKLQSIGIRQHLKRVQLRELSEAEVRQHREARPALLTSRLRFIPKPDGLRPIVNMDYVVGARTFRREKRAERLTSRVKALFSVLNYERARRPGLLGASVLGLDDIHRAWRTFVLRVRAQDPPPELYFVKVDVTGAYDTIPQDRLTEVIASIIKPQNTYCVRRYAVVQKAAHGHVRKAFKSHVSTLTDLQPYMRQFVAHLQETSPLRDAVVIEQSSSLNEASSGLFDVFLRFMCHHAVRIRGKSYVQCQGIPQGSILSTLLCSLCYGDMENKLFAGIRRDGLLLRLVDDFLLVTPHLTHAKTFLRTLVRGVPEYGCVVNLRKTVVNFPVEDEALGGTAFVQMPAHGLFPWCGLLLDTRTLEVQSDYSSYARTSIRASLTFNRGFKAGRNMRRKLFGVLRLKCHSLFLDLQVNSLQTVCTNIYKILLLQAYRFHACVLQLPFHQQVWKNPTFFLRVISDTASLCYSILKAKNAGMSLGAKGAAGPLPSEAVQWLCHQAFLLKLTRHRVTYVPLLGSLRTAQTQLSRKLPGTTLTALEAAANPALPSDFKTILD
Procedure: Direct telomerase assays were conducted with 5 nM ^32P-end labeled primer a and d Primer 3 (AGGGTT)3, b Primer 1 (TTAGGG)3, or c Primer 2 […]. […] Products were separated on denaturing gels. Letters on the y-axis of the graph indicate the template base; P indicates unextended 18-mer primer. Graphs represent percent of product terminated at each template position as a function of total products. Images are representative of, and data are the mean ± s.d. from, three independent experiments. Source data are provided as a Source Date file.
The reactions were started by the addition of 3 μl of immunopurified telomerase eluent, incubated at 37 °C for 1 h, then terminated with 2 μl of […] and heat inactivated at 65 °C for 20 min. An equal volume of loading buffer (94% formamide, 0.1× TBE, 0.1% bromophenol blue, 0.1% xylene cyanol) was added to the reaction eluent. The samples were heat denatured for 10 min at 100 °C and loaded onto a 14% denaturing acrylamide gel (7 M urea, 1× TBE) and electrophoresed for 90 min at constant 38 W. Samples were imaged using a Typhoon phosphorimager (GE Healthcare). Percent primer extension was calculated with ImageQuant TL 8.2 by measuring the intensity of each product band and dividing by the total radioactivity in the lane or total products, as indicated in the figure legends.

telomerase [2] = molecular target: T1, telomerase; assay: Telomerase repeat processivity IC50: modified dNTP titrated into reactions with all four natural dNTPs; assay type: biochemical; design: made in house; anti-FLAG immunopurification, eluted with 3xFLAG peptide
Summary of the method: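 Immunopurified human telomerase reactions with cellular-relevant levels of all four natural dNTPs plus modified dNTP titrated 0–10,000 μM, 1 h at 37 °C; products resolved on denaturing gels and phosphorimaged. Repeat processivity R1/2 = −ln(2)/slope of ln(100−%LB) vs repeat number; IC50 is concentration halving bulk repeat processivity.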

Nc1nc(O)nc2c1ncn2C1CC(O)C(COP(=O)(O)OP(=O)(O)OP(=O)(O)O)O1 (stereo not shown) [2-OH-dATP]
Extension after insertion of the modified dNTP (in words) (telomerase [1]; 50 μM each dNTP, analog substituted for natural dNTP): translocation to add the next repeat is greatly compromised
Percent of Total Product (telomerase [1]; terminated at rA3): 5.06%
Percent of Total Product (telomerase [1]; terminated at rA4): 1.19%
Percent of Total Product (telomerase [1]; terminated at rC1): 1.62%
Percent of Total Product (telomerase [1]; terminated at rC2): 10.51%
Percent of Total Product (telomerase [1]; terminated at rC6): 68.71%
Percent of Total Product (telomerase [1]; terminated at rU5 (first)): 12.42%
Percent of Total Product (telomerase [1]; terminated at rU5 (second, after translocation)): 0.49%
YIntercept (line fit of ln(100-%LB) vs # telomere repeats) (telomerase [2]; 2-OH-dATP 31μM): 3.86 and 4.26 and 3.87
ln(100-%LB) (telomerase [2]; 2-OH-dATP 31μM, telomere repeat 1): 3.80 and 4.29 and 3.78
ln(100-%LB) (telomerase [2]; 2-OH-dATP 31μM, telomere repeat 2): 3.30 and 3.65 and 3.08
ln(100-%LB) (telomerase [2]; 2-OH-dATP 31μM, telomere repeat 3): 2.75 and 3.04 and 2.41
ln(100-%LB) (telomerase [2]; 2-OH-dATP 31μM, telomere repeat 4): 2.47 and 2.74 and 2.04
ln(100-%LB) (telomerase [2]; 2-OH-dATP 31μM, telomere repeat 5): 2.09 and 2.42 and 1.67
ln(100-%LB) (telomerase [2]; 2-OH-dATP 31μM, telomere repeat 6): 1.74 and 2.03 and 1.15
Processivity R 1/2 (telomerase [2]; 2-OH-dATP 31.25 μM): 2.08 and 3.03 and 1.6
Processivity R 1/2 (telomerase [2]; 2-OH-dATP 62.5 μM): 1.82 and 1.19 and 1.25
Processivity R 1/2 (telomerase [2]; 2-OH-dATP 250μM): 0.71 and 1.05 and 0.94
YIntercept (line fit of ln(100-%LB) vs # telomere repeats) (telomerase [2]; 2-OH-dATP 250μM): 4.34 and 4.78 and 4.14
ln(100-%LB) (telomerase [2]; 2-OH-dATP 250μM, telomere repeat 1): 3.46 and 4.32 and 3.82
ln(100-%LB) (telomerase [2]; 2-OH-dATP 250μM, telomere repeat 2): 2.39 and 3.46 and 2.75
Processivity R 1/2 (telomerase [2]; 2-OH-dATP 500μM): 0.82 and 0.52 and 1.02
YIntercept (line fit of ln(100-%LB) vs # telomere repeats) (telomerase [2]; 2-OH-dATP 500μM): 3.92 and 4.75 and 4.04
ln(100-%LB) (telomerase [2]; 2-OH-dATP 500μM, telomere repeat 1): 3.41 and 4.41 and 3.82
ln(100-%LB) (telomerase [2]; 2-OH-dATP 500μM, telomere repeat 2): 2.30 and 3.46 and 2.66
YIntercept (line fit of ln(100-%LB) vs # telomere repeats) (telomerase [2]; 2-OH-dATP 750μM): 4.21 and 5.17 and 4.34
ln(100-%LB) (telomerase [2]; 2-OH-dATP 750μM, telomere repeat 1): 2.99 and 4.03 and 3.90
YIntercept (line fit of ln(100-%LB) vs # telomere repeats) (telomerase [2]; 2-OH-dATP 1000μM): 4.31 and 5.20 and 4.71
ln(100-%LB) (telomerase [2]; 2-OH-dATP 1000μM, telomere repeat 1): 2.98 and 4.07 and 3.49
ln(100-%LB) (telomerase [2]; 2-OH-dATP 1500μM, telomere repeat 2): 0.48
Processivity R 1/2 (telomerase [2]; 2-OH-dATP 2000 μM): 0
IC50 (telomerase [2]; 2-OH-dATP, mean of N1-N3, SD 66.28, read-out: Mean IC50 (processivity R 1/2)): 103 µM
Bottom (best-fit, processivity R 1/2 vs log concentration) (telomerase [2]; 2-OH-dATP, per replicate N1-N3): 0.09 and -0.00587 and 0.62
HillSlope (processivity) (telomerase [2]; 2-OH-dATP, per replicate N1-N3): -1.28 and -0.83 and -0.032
Span (best-fit, processivity R 1/2 vs log concentration) (telomerase [2]; 2-OH-dATP, per replicate N1-N3): 2.29 and 2.84 and 1.84
Top (best-fit, processivity R 1/2 vs log concentration) (telomerase [2]; 2-OH-dATP, per replicate N1-N3): 2.38 and 2.84 and 2.47
LogIC50 (processivity) (telomerase [2]; 2-OH-dATP, per replicate N1-N3, concentration in μM): 2.24 and 1.99 and 1.60
IC50 (telomerase [2]; 2-OH-dATP, per replicate N1-N3, read-out: IC50 (processivity R 1/2)): 172 µM and 97 µM and 39.4 µM
IC50 (telomerase [2]; cellular relevant natural dNTPs, modified dNTP titrated 0 to 10,000 μM, based on repeat processivity, mean ± SD, read-out: Telomerase processivity IC50): 103 ± 66 µM
IC50 (telomerase [2]; log of processivity IC50 (concentration in μM), Supplementary Fig 8b, read-out: Log IC50 (converted)): 126 µM
